Data reported in patent publication US6664214B1, “Uracil compounds and use thereof” (Sumitomo Chemical Company, Limited, priority 1999, dated 2003).

Key:
ivyleaf morningglory [1] = experiment: Test Example 4: soil surface treatment on upland field (Table 5); type: in vivo, Ipomoea hederacea; design: key: 0: little difference in the degree of germination or growth between the treated plants and the untreated plants at the time of examination; 10: the treated plants died completely or their germination or growth was completely inhibited; conditions: 500 g/ha active ingredient, examined 12 days after application, index 0-10
Source text: (§1) In the examples, the compounds are identified by the Compound Numbers as in Tables 1 to 3. […] A cylindrical plastic pot having a diameter of 10 cm and a depth of 10 cm was filled with soil and seeded ivyleaf morningglory, velvetleaf and barnyardgrass. Then each of compounds listed below was formulated into an emulsifiable concentrate according to Formulation Example 2 and then diluted to the prescribed amount with water and dilution was uniformly sprayed over the surface of the soil with sprayer at the rate of 1000 liters per hectare. After the application, the test plants were grown in a greenhouse for 12 days, and the herbicidal activity was examined.

barnyardgrass [2] = experiment: Test Example 1: foliar treatment on upland field; type: in vivo, Echinochloa crus-galli; conditions: 125 g/ha, 8 days after application
Description: (§2) In the examples, the compounds are identified by the Compound Numbers as in Tables 1 to 3.
(§3) A cylindrical plastic pot having a diameter of 10 cm and a depth of 10 cm was filled with soil and seeded with ivyleaf momingglory, velvetleaf and bamyardgrass. These test plants were grown in a greenhouse for 9 days. Then each of compounds 1-1, 2-1, 2-2, 3-1 and 3-101 was formulated into an emulsifiable concentrate according to Formulation Example 2 and then diluted to the prescribed amount with water containing a spreading agent and the dilution was uniformly sprayed over the foliage of the test plants with sprayer at a rate of 1000 liters per hectare. After the application, the test plants were grown in the greenhouse for 8 days, and the herbicidal activity were determined.

velvetleaf [3] = experiment: Test Example 4: soil surface treatment on upland field (Table 5); type: in vivo, Abutilon theophrasti; design: key: 0: little difference in the degree of germination or growth between the treated plants and the untreated plants at the time of examination; 10: the treated plants died completely or their germination or growth was completely inhibited; conditions: 500 g/ha active ingredient, examined 12 days after application, index 0-10
Source text: as §1

giant foxtail = experiment: Test Example 6: foliar treatment on upland field (Table 7); type: in vivo, Setaria faberi; design: key: 0: little difference in the degree of germination or growth between the treated plants and the untreated plants at the time of examination; 10: the treated plants died completely or their germination or growth was completely inhibited; conditions: 8 g/ha, 19 days after application, index 0 to 10
Description: (§4) In the examples, the compounds are identified by the Compound Numbers as in Tables 1 to 3. […] A plastic pot having a area of 27×20 cm^2 and a depth of 7.5 cm filled with soil, seeded with barnyardgrass. The test plant was grown in a greenhouse for 4 days. The seedlings of large crabgrass and giant foxtail, which were seeded into a pot for plug seedlings and grown in a greenhouse for 14 days, were transplanted into the plastic pot. The test plants, further, were grown in the greenhouse for 8 days. Then each of compound listed below was formulated into an emulsifiable concentrate according to Formulation Example 2 and then diluted to the prescribed amount with water containing a spreading agent and the dilution was uniformly sprayed over the foliage of the test plants with sprayer at a rate of 1000 liters per hectare. After the application, the test plants were grown in the greenhouse for 19 days, and the herbicidal activity were determined.

velvetleaf [4] = experiment: Test Example 1: foliar treatment on upland field; type: in vivo, Abutilon theophrasti; conditions: 125 g/ha, 8 days after application
Description: as §2, §3

barnyardgrass [5] = experiment: Test Example 6: foliar treatment on upland field (Table 7); type: in vivo, Echinochloa crus-galli; design: key: 0: little difference in the degree of germination or growth between the treated plants and the untreated plants at the time of examination; 10: the treated plants died completely or their germination or growth was completely inhibited; conditions: 8 g/ha, 19 days after application, index 0 to 10
Description: as §4

velvetleaf [6] = experiment: Test Example 3: foliar treatment on upland field (Table 4); type: in vivo, Abutilon theophrasti; design: key: 0: little difference in the degree of germination or growth between the treated plants and the untreated plants at the time of examination; 10: the treated plants died completely or their germination or growth was completely inhibited; conditions: 125 g/ha active ingredient, examined 16 days after application, index 0-10
Description: (§5) In the examples, the compounds are identified by the Compound Numbers as in Tables 1 to 3. […] A cylindrical plastic pot having a diameter of 10 cm and a depth of 10 cm was filled with soil and seeded with ivyleaf momingglory, velvetleaf and barnyardgrass. These test plants were grown in a greenhouse for 10 days. Then each of compounds listed below was formulated into an emulsifiable concentrate according to Formulation Example 2 and then diluted to the prescribed amount with water containing a spreading agent and the dilution was uniformly sprayed over the foliage of the test plants with sprayer at a rate of 1000 liters per hectare. After the application, the test plants were grown in the greenhouse for 16 days, and the herbicidal activity were determined.

barnyardgrass [7] = experiment: as above; type: in vivo, Echinochloa crus-galli; design: key: 0: little difference in the degree of germination or growth between the treated plants and the untreated plants at the time of examination; 10: the treated plants died completely or their germination or growth was completely inhibited; conditions: 125 g/ha active ingredient, examined 16 days after application, index 0-10
Description: as §5

velvetleaf [8] = experiment: Test Example 2: soil surface treatment on upland field; type: in vivo, Abutilon theophrasti; conditions: 500 g/ha, 12 days after application
Source text: as §1, with “seeded with velvetleaf.” for “seeded ivyleaf morningglory, velvetleaf and barnyardgrass.”, “compounds 1-1, 2-1, 2-2, 3-1 and 3-101” for “compounds listed below”, “at a” for “at the”

ivyleaf morningglory [9] = experiment: Test Example 1: foliar treatment on upland field; type: in vivo, Ipomoea hederacea; conditions: 125 g/ha, 8 days after application
Description: as §2, §3

large crabgrass [10] = experiment: Test Example 6: foliar treatment on upland field (Table 7); type: in vivo, Digitaria sanguinalis; design: key: 0: little difference in the degree of germination or growth between the treated plants and the untreated plants at the time of examination; 10: the treated plants died completely or their germination or growth was completely inhibited; conditions: 8 g/ha, 19 days after application, index 0 to 10
Description: as §4

large crabgrass [11] = experiment: Test Example 5: foliar treatment on upland field (Table 6); type: in vivo, Digitaria sanguinalis; design: key: 0: little difference in the degree of germination or growth between the treated plants and the untreated plants at the time of examination; 10: the treated plants died completely or their germination or growth was completely inhibited; conditions: 125 g/ha, 19 days after application, index 0 to 10
Description: In the examples, the compounds are identified by the Compound Numbers as in Tables 1 to 3. […] A pot for plug seedlings seeded with large crabgrass. The test plant was grown in a greenhouse for 14 days, then transplanted into a plastic pot having an area of 17×12 cm^2 and a depth of 7 cm, and further the test plants were grown in the greenhouse for 8 days. Then each of compounds listed below was formulated into an emulsifiable concentrate according to Formulation Example 2 and then diluted to the prescribed amount with water containing a spreading agent and the dilution was uniformly sprayed over the foliage of the test plants with sprayer at a rate of 1000 liters per hectare. After the application, the test plants were grown in the greenhouse for 19 days, and the herbicidal activity were determined.

barnyardgrass [12] = experiment: Test Example 4: soil surface treatment on upland field (Table 5); type: in vivo, Echinochloa crus-galli; design: key: 0: little difference in the degree of germination or growth between the treated plants and the untreated plants at the time of examination; 10: the treated plants died completely or their germination or growth was completely inhibited; conditions: 500 g/ha active ingredient, examined 12 days after application, index 0-10
Source text: as §1

ivyleaf morningglory [13] = experiment: Test Example 3: foliar treatment on upland field (Table 4); type: in vivo, Ipomoea hederacea; design: key: 0: little difference in the degree of germination or growth between the treated plants and the untreated plants at the time of examination; 10: the treated plants died completely or their germination or growth was completely inhibited; conditions: 125 g/ha active ingredient, examined 16 days after application, index 0-10
Description: as §5

COC(=O)C(C)Oc1ccc(COc2cc(-n3c(=O)cc(C(F)(F)F)n(C)c3=O)c(F)cc2Cl)cc1 (stereo not shown) [Compound 1-1, methyl 2-[4-({2-chloro-4-fluoro-5-[3-methyl-2,6-dioxo-4-(trifluoromethyl)-1,2,3,6-tetrahydropyrimidine-1-yl]phenoxyl}methyl)phenoxy]propionate]
completely controlled: growth of barnyardgrass (barnyardgrass [2]) | growth of velvetleaf (velvetleaf [4]) | germination of velvetleaf (velvetleaf [8]) | growth of ivyleaf morningglory (ivyleaf morningglory [9])
10: Herbicidal effect Ivyleaf morningglory (ivyleaf morningglory [1]) | Herbicidal effect Velvetleaf (velvetleaf [3]) | Herbicidal effect Barnyard-grass (barnyardgrass [5]) | Herbicidal effect Velvetleaf (velvetleaf [6]) | Herbicidal effect Barnyardgrass (barnyardgrass [7]) | Herbicidal effect Large crabgrass (large crabgrass [10]) | Herbicidal effect Large crabgrass (large crabgrass [11]) | Herbicidal effect Ivyleaf morningglory (ivyleaf morningglory [13])
9: Herbicidal effect Giant foxtail (giant foxtail) | Herbicidal effect Barnyardgrass (barnyardgrass [12])

COC(=O)C(C)Oc1cccc(COc2cc(-n3c(=O)cc(C(F)(F)F)n(C)c3=O)c(F)cc2Cl)c1 (stereo not shown) [Compound 2-1, methyl 2-[3-({2-chloro-4-fluoro-5-[3-methyl-2,6-dioxo-4-(trifluoromethyl)-1,2,3,6-tetrahydropyrimidine-1-yl]phenoxy}methyl)phenoxy]propionate]
completely controlled: growth of barnyardgrass (barnyardgrass [2]) | growth of velvetleaf (velvetleaf [4]) | germination of velvetleaf (velvetleaf [8]) | growth of ivyleaf morningglory (ivyleaf morningglory [9])
10: Herbicidal effect Ivyleaf morningglory (ivyleaf morningglory [1]) | Herbicidal effect Velvetleaf (velvetleaf [3]) | Herbicidal effect Giant foxtail (giant foxtail) | Herbicidal effect Barnyard-grass (barnyardgrass [5]) | Herbicidal effect Velvetleaf (velvetleaf [6]) | Herbicidal effect Barnyardgrass (barnyardgrass [7]) | Herbicidal effect Large crabgrass (large crabgrass [10]) | Herbicidal effect Large crabgrass (large crabgrass [11]) | Herbicidal effect Barnyardgrass (barnyardgrass [12]) | Herbicidal effect Ivyleaf morningglory (ivyleaf morningglory [13])
